{
  "source": "paper PMC5057115",
  "about": "“Cathelicidins in the Tasmanian devil (Sarcophilus harrisii)” (Scientific Reports, 2016)",
  "key": {"[1]": {"system": "human red blood cells", "format": "cell-based", "details": "red cells of human, 24 h", "experimental": "Tissue expression of devil cathelicidin prepropeptides was determined by real-time PCR on a range of secretory, immune, reproductive, gastrointestinal and respiratory tissues, as well as BLAST searches of the milk transcriptome. Opportunistic tissue samples for real-time PCR were collected from Taronga Zoo (Sydney) from devils which were subject to euthanasia due to old age and advanced disease. […] Ltd. and their antimicrobial activity against bacterial and fungal pathogens determined by broth microdilution susceptibility assay according to clinical laboratory standards institute guidelines. Antimicrobial activity was expressed as minimum inhibitory concentration (MIC). Cytotoxicity was assessed in the human cell line A549 and haemolytic activity determined against human blood. Statistical significance of peptide effect on cell survival in comparison to the untreated control was calculated using a one sample t-test. Pouch microbiome analysis was performed on swabs from the pouch of lactating and non-lactating devils to detect changes in microbe populations. Pouch swab collection was carried out in accordance with the Save the Tasmanian Devil Program and was approved by the Animal Ethics Committee of the University of Sydney (permit number 681). page 3: […] Two antibiotics, ampicillin and tetracycline, were included as a positive control for bacteria, and the […] A well containing cells and media only was used as a “no drug” control to ensure that cultures grew normally. Bacteria were subcultured on Mueller Hinton agar (MHA) or Sheep blood agar (BA) for 24 hours at 35 °C for Staphylococcus spp., Pseudomonas spp., Enterococcus spp. and E.coli, with 5% CO2 for Streptococcus spp., K.pneumoniae, P.multocida, […] Similarly, fungi were subcultured on Sabouraud agar (SAB) at 35 °C for 24 hours prior to the test. Colonies were resuspended in saline and the OD530 measured with a McFarland reader. If necessary the suspension was diluted to 0.45-0.55 McFarland units with saline. […] Assays Antimicrobial activity was expressed as minimum inhibitory concentration (MIC), which was defined as the lowest concentration of cathelicidin preventing visible growth, relative to the negative control. Colonies which grew on agar plates were also counted. Cytotoxicity Cytotoxicity was assessed in the human A549 cell line maintained in Dulbecco’s Modification of Eagle’s Medium (DMEM) supplemented with 10% foetal bovine serum (FBS), 2mM L -glutamine, 50units/mL penicillin and 50μg/mL streptomycin. […] Following incubation for a further 24 hours, cell viability was determined using alamar blue (Invitrogen) which was added to each well. […]"}, "[2]": {"system": "E. coli ATCC 25922", "assay": "microbe, parasite or virus in culture", "format": "cell-based, Escherichia coli", "details": "Escherichia coli, ATCC25922; broth microdilution (CLSI), 64 to 0.125 μg/mL, 24 h at 35 °C, lowest concentration preventing visible growth; ATCC strain; read-out: MIC", "experimental": "(§1) Tissue expression of devil cathelicidin prepropeptides was determined by real-time PCR on a range of secretory, immune, reproductive, gastrointestinal and respiratory tissues, as well as BLAST searches of the milk transcriptome. Opportunistic tissue samples for real-time PCR were collected from Taronga Zoo (Sydney) from devils which were subject to euthanasia due to old age and advanced disease. The mature peptides of all six devil cathelicidins were synthesised by ChinaPeptides Co. Ltd. and their antimicrobial activity against bacterial and fungal pathogens determined by broth microdilution susceptibility assay according to clinical laboratory standards institute guidelines. Antimicrobial activity was expressed as minimum inhibitory concentration (MIC). Cytotoxicity was assessed in the human cell line A549 and haemolytic activity determined against human blood. Statistical significance of peptide effect on cell survival in comparison to the untreated control was calculated using a one sample t-test. Pouch microbiome analysis was performed on swabs from the pouch of lactating and non-lactating devils to detect changes in microbe populations. Pouch swab collection was carried out in accordance with the Save the Tasmanian Devil Program and was approved by the Animal Ethics Committee of the University of Sydney (permit number 681). […]\n(§2) base (YNB) for fungi, from a concentration of 64μg/mL to 0.125μg/mL in a final volume of 100 μL .\n(§3) Two antibiotics, ampicillin and tetracycline, were included as a positive control for bacteria, and the antifungal drug fluconazole for fungi. A well containing cells and media only was used as a “no drug” control to ensure that cultures grew normally. Bacteria were subcultured on Mueller Hinton agar (MHA) or Sheep blood agar (BA) for 24 hours at 35 °C for Staphylococcus spp., Pseudomonas spp., Enterococcus spp. and E.coli, with 5% CO2 for Streptococcus spp., K.pneumoniae, P.multocida, L.monocytogenes and N.asteroides. Similarly, fungi were subcultured on Sabouraud agar (SAB) at 35 °C for 24 hours prior to the test. Colonies were resuspended in saline and the OD530 measured with a McFarland reader. If necessary the suspension was diluted to 0.45-0.55 McFarland units with saline. […] Assays Antimicrobial activity was expressed as minimum inhibitory concentration (MIC), which was defined as the lowest concentration of cathelicidin preventing visible growth, relative to the negative control. […]\n(§4) 570nm and 620nm using the Victor 3 multilabel plate reader (PerkinElmer). […] To x i city of cathelicidins was calculated according to Invitrogen recommendations and expressed as percentage cell survival compared to the untreated growth control. […]\n(§5) Haemolytic activity was assessed using 10mL of human blood collected into potassium -ED T A vacutainers (BD). […]"}, "[3]": {"system": "S. pneumoniae ATCC 49619", "assay": "microbe, parasite or virus in culture", "format": "cell-based", "details": "Streptococcus pneumoniae, ATCC49619; broth microdilution (CLSI), 64 to 0.125 μg/mL, 24 h at 35 °C with 5% CO2; ATCC strain; read-out: MIC", "experimental": "as §1, §2\n(§6) Two antibiotics, ampicillin and tetracycline, were included as a positive control for bacteria, and the antifungal drug fluconazole for fungi. A well containing cells and media only was used as a “no drug” control to ensure that cultures grew normally. Bacteria were subcultured on Mueller Hinton agar (MHA) or Sheep blood agar (BA) for 24 hours at 35 °C for Staphylococcus spp., Pseudomonas spp., Enterococcus spp. and E.coli, with 5% CO2 for Streptococcus spp., K.pneumoniae, P.multocida, L.monocytogenes and N.asteroides. Similarly, fungi were subcultured on Sabouraud agar (SAB) at 35 °C for 24 hours prior to the test. Colonies were resuspended in saline and the OD530 measured with a McFarland reader. If necessary the suspension was diluted to 0.45-0.55 McFarland units with saline. Following a 1:150 dilution for bacteria and twostep dilution for fungi (1:50, 1:20), 100 μL of microorganisms (1x106 – 5 x10^5 cells/mL) were pipetted into wells 2-12, the first well acting as a negative control. Colony counts were performed using a 1:1000 dilution for bacteria and 1:10 for fungi spread onto MHA/BA or SAB plates respectively. The 96 well microdilution and agar plates were incubated for 24 hours at 35 °C (Escherichia coli, Staphylococcus spp., Enterococcus spp. and Pseudomonas spp.), with 5% CO2 (Streptococcus spp. Pasteurella multocida, Klebsiella pneumoniae, Listeria monocytogenes a nd Nocardia asteroids) for bacteria, and 35 °C for 48 hours (Candida spp .) or 72 hours (Cryptococcus spp.) for fungi. Assays Antimicrobial activity was expressed as minimum inhibitory concentration (MIC), which was defined as the lowest concentration of cathelicidin preventing visible growth, relative to the negative control. […]\n(§7) DMEM and positive control of dimethylsulfoxide (DMSO) (1%) were also included. […]\n(§8) 570nm and 620nm using the Victor 3 multilabel plate reader (PerkinElmer). The assay was performed on two separate occasions. To x i city of cathelicidins was calculated according to Invitrogen recommendations and expressed as percentage cell survival compared to the untreated growth control. A significant difference between cathelicidin treated and control cell survival was tested using a o ne sample t-test (p<0.05).\n(§9) Haemolytic activity was assessed using 10mL of human blood collected into potassium -ED T A vacutainers (BD). The blood was washed three times with 30mL of calcium and magnesium -free Dulbecco’s phosphate buffered saline (DPBS) and cells were collected by centrifugation at 2000 x g […]\n(§10) for 10 minutes. […]"}, "[4]": {"system": "E. faecalis ATCC 29212", "assay": "microbe, parasite or virus in culture", "format": "cell-based, Enterococcus faecalis", "details": "Enterococcus faecalis, ATCC29212; broth microdilution (CLSI), 64 to 0.125 μg/mL, 24 h at 35 °C; ATCC strain; read-out: MIC", "experimental": "as §1, §2, §3, §4, §5"}, "[5]": {"system": "C. parapsilosis ATCC 22019", "assay": "microbe, parasite or virus in culture", "format": "cell-based", "details": "Lodderomyces parapsilosis, ATCC22019; broth microdilution (CLSI), YNB, 64 to 0.125 μg/mL, 48 hours at 35 °C; ATCC strain; read-out: MIC", "experimental": "as §1, §2, §6, §7, §8, §9, §10"}, "[6]": {"system": "P. aeruginosa ATCC 27853", "assay": "microbe, parasite or virus in culture", "format": "cell-based, Pseudomonas aeruginosa", "details": "Pseudomonas aeruginosa, ATCC27853; broth microdilution (CLSI), 64 to 0.125 μg/mL, 24 h at 35 °C; ATCC strain; read-out: MIC", "experimental": "as §1, §2, §3, §4, §5"}, "[7]": {"system": "S. aureus ATCC 29213", "assay": "microbe, parasite or virus in culture", "format": "cell-based, Staphylococcus aureus", "details": "Staphylococcus aureus, ATCC29213; broth microdilution (CLSI), 64 to 0.125 μg/mL, 24 h at 35 °C; ATCC strain; read-out: MIC", "experimental": "as §1, §2, §3, §4, §5"}, "[8]": {"system": "25 bacterial and 6 fungal strains", "format": "cell-based", "details": "against the bacteria and fungi tested (25 bacterial and 6 fungal strains of Table 2), broth microdilution (CLSI)", "text": "To assess the antimicrobial activity of devil cathelicidins, we tested synthesized mature peptides on 25 bacterial and 6 fungal strains (Table 2). As there were no Tasmanian devil specific isolates available, human and veterinary strains were used. The antimicrobial activity of Tasmanian devil cathelicidin mature peptides Saha-CATH1 to 6 against bacteria and fungi is summarised in Table 2. […] As such, these values are not included in Table 2. Saha-CATH3 had highly specific activity, as it was unable to kill any bacteria, but killed Cryptococcus neoformans. […]\nTissue expression of devil cathelicidin prepropeptides was determined by real-time PCR on a range of secretory, immune, reproductive, gastrointestinal and respiratory tissues, as well as BLAST searches of the milk transcriptome. […] The mature peptides of all six devil cathelicidins were synthesised by ChinaPeptides Co. Ltd. and their antimicrobial activity against bacterial and fungal pathogens determined by broth microdilution susceptibility assay according to clinical laboratory standards institute guidelines. Antimicrobial activity was expressed as minimum inhibitory concentration (MIC). Cytotoxicity was assessed in the human cell line A549 and haemolytic activity determined against human blood. Statistical significance of peptide effect on cell survival in comparison to the untreated control was calculated using a one sample t-test. […]"}},
  "note": "Where a SMILES comes first, the peptide text is derived from it. Where no end group is shown, it is not given here.",
  "data": [
    {"compound": "CC[C@H](C)[C@H](NC(=O)CN)C(=O)N[C@@H](CCCCN)C(=O)N[C@@H](Cc1c[nH]cn1)C(=O)N[C@H](C(=O)N[C@@H](CC(C)C)C(=O)N[C@@H](Cc1ccccc1)C(=O)N[C@@H](CCSC)C(=O)N[C@@H](C)C(=O)N[C@@H](CCCCN)C(=O)N[C@H](C(=O)N[C@@H](CCCCN)C(=O)N[C@@H](CC(C)C)C(=O)N1CCC[C@H]1C(=O)N[C@@H](CCCNC(=N)N)C(=O)N[C@@H](C)C(=O)N[C@H](C(=O)N[C@@H](CS)C(=O)N[C@H](C(=O)N[C@@H](C)C(=O)N[C@@H](CCC(=O)O)C(=O)N[C@H](C(=O)N[C@@H](CCCCN)C(=O)N[C@@H](CCC(=O)O)C(=O)N[C@@H](CC(N)=O)C(=O)N[C@@H](CS)C(=O)N[C@@H](CC(=O)O)C(=O)N[C@@H](CCCNC(=N)N)C(=O)N[C@@H](CCCCN)C(=O)N[C@@H](CCCCN)C(=O)O)[C@@H](C)CC)[C@@H](C)O)[C@@H](C)O)[C@@H](C)O)[C@@H](C)CC", "note": "[Saha-CATH1] (H-GIKHILFMAKTKLPRATCTAEIKENCDRKK-OH; N-terminus and C-terminus assumed)", "values": [
      {"measurement": "haemolysis compared with the positive control", "setting": "[1]", "result": "below 7%"}
    ]},
    {"compound": "CC1(C)S[C@@H]2[C@H](NC(=O)[C@H](N)c3ccccc3)C(=O)N2[C@H]1C(=O)O", "note": "[ampicillin, reference compound]", "values": [
      {"measurement": "MIC", "setting": "[2]", "result": 8, "unit": "µg/mL"},
      {"measurement": "MIC", "setting": "[3]", "result": 0.125, "unit": "µg/mL"},
      {"measurement": "MIC", "setting": "[4]", "result": 1, "unit": "µg/mL"}
    ]},
    {"compound": "OC(Cn1cncn1)(Cn1cncn1)c1ccc(F)cc1F", "note": "[fluconazole, reference compound]", "values": [
      {"measurement": "MIC", "setting": "[5]", "result": 2, "unit": "µg/mL"}
    ]},
    {"compound": "CN(C)[C@@H]1C(O)=C(C(N)=O)C(=O)[C@@]2(O)C(O)=C3C(=O)c4c(O)cccc4[C@@](C)(O)[C@H]3C[C@@H]12", "note": "[tetracycline, reference compound]", "values": [
      {"measurement": "MIC", "setting": "[6]", "result": 8, "unit": "µg/mL"},
      {"measurement": "MIC", "setting": "[7]", "result": 0.125, "unit": "µg/mL"}
    ]},
    {"compound": "KREDFLDQIIRDFRNFIYQKYRRLRDEFRKLRDILSG [Saha-CATH4]", "values": [
      {"measurement": "minimum inhibitory concentration (MIC)", "setting": "[8]", "result": "greater than 64 μg/mL"},
      {"measurement": "haemolysis compared with the positive control", "setting": "[1]", "result": "below 7%"}
    ]},
    {"compound": "TFKRKNGSRKNGHRPGGYSLIALGNKKVLKAPYMESI [Saha-CATH2]", "values": [
      {"measurement": "minimum inhibitory concentration (MIC)", "setting": "[8]", "result": "greater than 64 μg/mL"},
      {"measurement": "haemolysis compared with the positive control", "setting": "[1]", "result": "below 7%"}
    ]}
  ]
}
